Laboratory results taken from patent US6893821B2, “Agents that modulate DNA-PK activity and methods of use thereof” (The Regents of the University of California, priority 2000, dated 2005).

Key:
[1] = biological target: T1, Ku antigen (Ku70/Ku80 heterodimer) (Mus musculus, UniProt P23475+P27641); test: EMSA inhibition study: cold ODN vs [32P]-labeled ds-ISS-ODN binding to Ku (affinity column fraction 20)
T1 construct: from tissue; host or cells: mouse liver (BALB/c)
Description: Purification of the ISS binding protein was accomplished by sequential ion exchange, heparin and ISS-ODN affinity chromatography, as follows. Due to the relative small tissue weight per spleen, liver lysate was used after confirming its reactivity to in vivo ISS injection, as described above. Crude liver extracts from 220 mice (BALB/c, Jackson Lab., Bar Harbour, Me.) or 15 New Zealand White rabbits (Simunek, Vista, Calif.) were prepared in homogenization buffer (20 mM HEPES, pH 7.6, 250 mM KCl, 0.1 mM EDTA, 0.5 mM EGTA, 20% glycerol) with 250 mM KCl and protease and phosphatase inhibitors and then centrifuged at 100,000×g for 1.5 hours at 4° C. The supernatant (400 ml) was filtered and loaded onto a Porous 20 QE column (17 ml, Pharmacia). Two μl (10 μg) of each fraction were used in a gel retardation assay to identify the location of proteins containing DNA binding activity using [^32P]-labeled ds-ISS-ODN as a probe. Fractions containing ISS-ODN binding activity were pooled (450 ml), buffered exchanged to low salt (50 mM KCl) and loaded onto a Heparin column (2 ml). The active fractions were subsequently loaded onto a 2 ml ds-ISS-ODN affinity column [CNBr-activated Sepharose 4B (Pharmacia) coupled to 320 μg of ds-ISS-ODNs with the sequence 5′-[…]-3′; SEQ ID NO: 21]. The column was washed with 8 ml of homogenization buffer containing 50 mM KCl and the bound proteins were eluted with a 20 ml linear gradient of 50 mM to 1.55 M KCl. One-ml fractions were collected and 2 μl of each were used to test for DNA binding activity. The active fractions were concentrated, separated by SDS-PAGE and stained with Coomassie Blue. The appearance of two bands with estimated molecular weights of 70 KDa and 80 KDa correlated with the DNA binding activity. Sequence analysis (Harvard Microsequencing Facility) of peptides derived from the two bands identified Ku70 and Ku80, respectively.
Mouse liver extracts were purified through anion (QE), heparin and ISS-based affinity chromatography, as described above. Two μl of each fraction (10 μg) were incubated with [^32 P]-labeled ds-ISS-ODN at 4° C. for 30 minutes. The samples were separated on a 5% acrylamide gel and the protein-DNA complexes were detected by autoradiography. […] The active fractions were separated by sodium dodecyl sulfate-polyacrylamide gel electrophoresis (SDS-PAGE), stained with Coomassie blue and micro-sequenced.
To verify the binding specificity of the Ku protein to ISS-ODN, inhibition studies were performed using cold ss or ds ISS or mutated (M, i.e., control) ODNs. Ten μg of fraction 20 from the affinity column were incubated with [^32P]-labeled ISS-ODN in the presence of unlabeled (0.1, 0.2 and 0.4 μg, respectively) ss-ISS-ODN (lanes 3-5), ds-ISS-ODN (lanes 7-9), ss-M-ODN (lanes 11-13) or ds-M-ODN (lanes 15-17).

[2] = test system: IκB kinase (IKK) complex; test: IKK kinase assay on IKK complex immunoprecipitated from treated BMDM (IκBα N-terminus substrate); type: cell-based, mice
Description: Kinase assays and immunoblotting were performed according to Li et al. ((1999) J. Exp. Med. 189:1839-1845). Briefly, BMDM were treated with ISS-ODN (5 μg/ml), M-ODN (5 μg/ml) on ps and po backbones as indicated, LPS-free bacterial DNA or methylated bacterial DNA (5 μg/ml), LPS-free calf thymus DNA (5 μg/ml), LPS (10 μg/ml) or TNFα (10 ng/ml) for the indicated time periods. Cell lysates were prepared and normalized by immunoblotting (IB) with anti-IKKα polyclonal antibodies (Santa Cruz, Santa Cruz Biotech Inc., Calif.), anti-IKKβ polyclonal antbodies (Santa Cruz) or anti-DNA-PKcs monoclonal antibodies (NeoMarker, Calif.). IκB kinase (IKK) complex or DNA-PK complex from 100 μg of the lysates were immunoprecipitated by anti-IKKα or by anti-DNA-PKcs antibodies. The kinase activities (KA) were determined by a kinase assay using the N-terminus of IκBα (for IKK) or the N-terminus of p53 (for DNA-PK) as a substrate as previously described. Wang et al. (1992) Proc. Natl. Acad. Sci. USA 89:4231-4235; Li et al.(1999), supra; and Hammarsten et al. (2000) J. Biol. Chem. 275:1541-1545.

[3] = test system: IKKα; test: In vitro IKK kinase assay: recombinant IKKα incubated with DNA-PK with ISS-ODN; type: biochemical; settings: IKKα incubated with DNA-PK in the presence of ISS-ODN; not beyond DNA-PK alone
Description: The ODNs (ps-ss) used include an ISS-ODN with an active CpG motif (AACGTT), a methylated ISS-ODN at the ^5C of the CpG dinucleotide (AA*CGTT) and various control ODNs. These ODNs were incubated at concentrations of 0, 0.1, 0.3, or 1 ng/reaction. The po-ISS-ODN was incubated at concentration of 20, 50 or 100 ng/reaction. The po-ds-ISS-ODN was incubated at concentration of 0, 0.5, 1, 2, 5 or 10 ng/reaction. The bacterial or calf thymus DNAs were each incubated at concentration of 1, 2 or 5 ng/reaction. Electrophoretic gel mobility shift assay (EMSA) was performed as previously described. Chu et al. (1999) Immunity 11:721-731; and Li et al., 1999, supra). In vitro IKK kinase assays were performed using purified IKK derived from Sf9 insect cell lysates as was previously described. Zandi et al. (1998) Science 281:1360-1363.
To explore a role of ISS-activated DNA-PK in IKK activation we tested whether affinity-purified DNA-PK can directly activate recombinant IKKα or IKKβ purified from Sf9 cells (Zandi et al., 1998, supra). […] Furthermore, although DNA-PKcs phosphorylated IκBα that activity was considerably lower than that achieved by IKKβ plus DNA-PK. […] Recombinant IKKβ was pre-incubated with DNA-PK in the presence or absence of ISS-ODN followed by immunoprecipitation of IKKβ and IκB kinase activity was measured. […] We next determined whether DNA-PK phosphorylates IKKβ.

T1 sequence (P23475 2-608 limits assumed): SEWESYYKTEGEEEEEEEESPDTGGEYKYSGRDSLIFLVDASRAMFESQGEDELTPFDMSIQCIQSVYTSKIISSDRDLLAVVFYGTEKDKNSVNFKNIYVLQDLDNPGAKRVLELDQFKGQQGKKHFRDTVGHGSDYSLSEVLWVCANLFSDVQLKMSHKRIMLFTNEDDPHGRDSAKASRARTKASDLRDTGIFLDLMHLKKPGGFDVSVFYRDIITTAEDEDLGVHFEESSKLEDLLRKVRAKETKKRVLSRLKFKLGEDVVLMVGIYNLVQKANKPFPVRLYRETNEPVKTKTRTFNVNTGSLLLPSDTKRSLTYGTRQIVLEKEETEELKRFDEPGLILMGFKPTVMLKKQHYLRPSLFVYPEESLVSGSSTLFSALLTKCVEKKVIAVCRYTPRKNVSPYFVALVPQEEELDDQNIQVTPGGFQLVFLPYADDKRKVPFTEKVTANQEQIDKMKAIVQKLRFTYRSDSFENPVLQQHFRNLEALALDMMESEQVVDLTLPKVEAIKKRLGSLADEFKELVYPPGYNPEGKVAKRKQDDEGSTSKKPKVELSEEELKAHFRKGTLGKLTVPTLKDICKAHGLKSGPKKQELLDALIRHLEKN
T1 sequence (P27641 whole entry): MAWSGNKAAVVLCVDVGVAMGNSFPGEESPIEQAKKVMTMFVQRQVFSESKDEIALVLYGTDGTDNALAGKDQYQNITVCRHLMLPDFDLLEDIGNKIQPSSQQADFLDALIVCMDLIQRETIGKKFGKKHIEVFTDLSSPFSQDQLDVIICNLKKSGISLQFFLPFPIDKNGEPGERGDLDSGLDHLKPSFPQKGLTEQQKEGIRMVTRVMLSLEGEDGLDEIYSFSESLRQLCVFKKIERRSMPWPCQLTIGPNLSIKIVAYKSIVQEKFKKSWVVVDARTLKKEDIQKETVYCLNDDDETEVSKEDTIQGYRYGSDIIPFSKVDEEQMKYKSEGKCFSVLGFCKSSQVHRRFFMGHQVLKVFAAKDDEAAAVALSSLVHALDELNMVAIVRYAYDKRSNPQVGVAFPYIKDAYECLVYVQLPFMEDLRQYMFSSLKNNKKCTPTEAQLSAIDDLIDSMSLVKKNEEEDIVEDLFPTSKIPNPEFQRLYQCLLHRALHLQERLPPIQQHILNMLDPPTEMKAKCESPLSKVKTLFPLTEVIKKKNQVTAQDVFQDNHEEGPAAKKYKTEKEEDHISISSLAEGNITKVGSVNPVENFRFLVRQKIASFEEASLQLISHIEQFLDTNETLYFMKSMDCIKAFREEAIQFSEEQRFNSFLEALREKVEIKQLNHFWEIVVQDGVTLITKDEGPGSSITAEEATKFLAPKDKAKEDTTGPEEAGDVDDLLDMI

Substance: 5′-TGACTGTGAACGTTCGAGATGA-3′ [ISS-ODN]
- interaction of Ku with ODN [1]: specific interaction
- IKK activation, wt vs ATM-deficient BMDM ([2]; ATM-deficient BMDM): no differences were observed
- IKK activation ([2]; DNA-PKcs-/- BMDM as compared to wt): little increase in IKK activity
- IKK activation ([2]; IKKβ-/- Tnfr-/- BMDM (absence of IKKβ)): prevented
- IKK activation ([2]; wt BMDM): robust IKK activation
- duration of IKK activation ([2]; wt BMDM): about 4 hrs
- time of maximal IKK activation post incubation ([2]; wt BMDM): 30 min
- ISS-ODN concentration of optimal IKK activation ([2]; wt BMDM (FIG. 5B)): 0.65 µg/mL
- IκB kinase activity of IKKα [3]: Only a small enhancement
